Test systems include A549 NSCLC; ACHN renal; EKVX NSCLC; HS 578T breast; HT29 colon; M14 melanoma; MCF7 breast; MOLT-4 leukemia; SK-MEL-2 melanoma; SNB-75 CNS.
Test in all cases: NCI tumour cell line growth inhibition, 48 h

Values joined by “and” are separate entries in the source; they are usually repeats but may differ in a detail not shown here. Identical values can stand only once.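 Values below derive from 48-hour exposures of cells grown in 96-well plates, with endpoints linearly interpolated between the two concentrations bracketing the appropriate inhibition level. GI50 is the concentration that inhibits growth by half. TGI: total growth inhibition.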 Where only a bound is given, the exact number is not on record here.

As for `COc1ccc(-c2cc3c(C)nc(N)nc3n(C3CCC(OCCO)CC3)c2=O)cn1` (stereo not given), the GI50 in the test on A549 NSCLC was 0.123 µM and 0.109 µM; in the test with ACHN renal it was 0.0971 µM and 0.0973 µM; in the test with EKVX NSCLC it was 0.0971 µM and 0.0465 µM; in the test with HS 578T breast it was 0.0345 µM and 0.015 µM; in the test with HT29 colon, 0.0781 µM and 0.0809 µM; with M14 melanoma, 0.099 µM and 0.0686 µM. In addition, the GI50 in the test with MCF7 breast is 0.0266 µM and 0.0228 µM; in the test with MOLT-4 leukemia, 0.0677 µM and 0.0626 µM; in the test with SK-MEL-2 melanoma it was 0.124 µM and 0.0674 µM; with SNB-75 CNS, 0.0151 µM and < 0.0117 µM. In addition, the TGI in the test with A549 NSCLC was 0.959 µM and 0.489 µM; in the test with ACHN renal it was greater than 6.33 µM; with EKVX NSCLC it was 0.7 µM and 0.396 µM; in the test on HS 578T breast, 0.272 µM and 0.113 µM; in the test with HT29 colon, 1.83 µM and 0.747 µM; in the test on M14 melanoma, 2.69 µM and 1.05 µM. In addition, the TGI with MCF7 breast is > 10 µM and 1.03 µM; in the test on MOLT-4 leukemia it was > 10 µM and 7.35 µM; in the test on SK-MEL-2 melanoma, 0.549 µM and 0.392 µM; with SNB-75 CNS, 0.137 µM and 0.177 µM.
Consider `CN=C1C=CC(=C(c2ccc(N(C)C)cc2)c2ccc(N(C)C)cc2)C=C1`, for which the GI50 with A549 NSCLC was 0.048 µM; with ACHN renal it was 0.326 µM; with EKVX NSCLC it was 0.237 µM; in the test on HS 578T breast, 0.233 µM; with HT29 colon it was 0.105 µM; with M14 melanoma, 0.28 µM. Further, the GI50 in the test with MCF7 breast is 0.308 µM; in the test with MOLT-4 leukemia, 0.369 µM; in the test with SK-MEL-2 melanoma, 0.202 µM; with SNB-75 CNS, 0.295 µM. In addition, the TGI was 1.38 µM with A549 NSCLC; 1.33 µM with ACHN renal; 2.62 µM in the test with EKVX NSCLC; 3.02 µM in the test with HS 578T breast; 0.496 µM in the test with HT29 colon; 1.08 µM in the test on M14 melanoma. The TGI in the test with MCF7 breast was 1.05 µM; with MOLT-4 leukemia it was 6.98 µM; in the test on SK-MEL-2 melanoma it was 0.462 µM; in the test on SNB-75 CNS, 1.04 µM.
With `C#CC1=CC(=O)C(OC)=CC1=O`, the TGI with A549 NSCLC is greater than 100 µM; with ACHN renal it was 11.3 µM; in the test with EKVX NSCLC, 68.1 µM; in the test on HS 578T breast, greater than 100 µM; in the test with HT29 colon it was 62 µM; in the test on M14 melanoma, 39.1 µM. Besides, the TGI in the test with MCF7 breast is 35.8 µM; with MOLT-4 leukemia it was greater than 100 µM; with SK-MEL-2 melanoma, 33.7 µM; in the test on SNB-75 CNS, 18.5 µM.
In the case of `COc1ccccc1S(=O)(=O)Nc1ccc2c3c(cc(CCC(=O)NCCCCNc4cccc5c4C(=O)N(C4CCC(=O)NC4=O)C5=O)cc13)C(=O)N2C` (stereo not given), the GI50 in the test with A549 NSCLC was 5.73 µM; in the test with ACHN renal, greater than 100 µM; with EKVX NSCLC, 18.1 µM; with HS 578T breast it was 0.186 µM; in the test with HT29 colon, 3.84 µM; in the test with M14 melanoma, 1.11 µM. Further, the GI50 is 0.264 µM in the test with MCF7 breast, 0.0352 µM in the test on MOLT-4 leukemia, 0.762 µM with SK-MEL-2 melanoma and 0.0718 µM in the test with SNB-75 CNS. The TGI is greater than 100 µM in the test with A549 NSCLC; greater than 100 µM in the test with ACHN renal; greater than 100 µM in the test on EKVX NSCLC; 1.1 µM with HS 578T breast; greater than 100 µM with HT29 colon; greater than 100 µM in the test on M14 melanoma. Also, the TGI in the test on MCF7 breast is greater than 100 µM; in the test with SK-MEL-2 melanoma it was greater than 27.4 µM; with SNB-75 CNS it was 0.828 µM.
Consider `CCCOC(=O)c1c(C)n(C)c2scc[n+]12`, for which the GI50 in the test on ACHN renal is greater than 100 µM; in the test on EKVX NSCLC, 13.7 µM; with HS 578T breast, 19.8 µM; in the test with HT29 colon it was 32.8 µM; in the test with M14 melanoma, greater than 100 µM; in the test on MCF7 breast, 31.2 µM. Moreover, the GI50 with MOLT-4 leukemia is 53.9 µM; with SK-MEL-2 melanoma, 64.1 µM; in the test with SNB-75 CNS, 50.5 µM. In addition, the TGI is greater than 100 µM with ACHN renal; greater than 100 µM in the test on EKVX NSCLC; 74 µM in the test with HS 578T breast; greater than 100 µM with HT29 colon; greater than 100 µM in the test with M14 melanoma; greater than 100 µM with MCF7 breast. The TGI in the test on MOLT-4 leukemia, in the test on SK-MEL-2 melanoma and with SNB-75 CNS was greater than 100 µM each time.
On to `O=C1CSC(c2ccccc2Cl)N1c1nnc(Cn2cnnc2)o1` (stereo not given), for which the GI50 in the test with A549 NSCLC was 18 µM; in the test with ACHN renal, 14.3 µM; in the test with EKVX NSCLC, 22.3 µM; in the test on HS 578T breast it was 8.62 µM; in the test on HT29 colon, 3.35 µM; in the test with M14 melanoma it was 6.06 µM. The GI50 in the test on MCF7 breast was 1.63 µM; in the test on MOLT-4 leukemia, 7.27 µM; with SK-MEL-2 melanoma, 22.6 µM; in the test with SNB-75 CNS, 3.19 µM. Moreover, the TGI is greater than 100 µM with A549 NSCLC; 48.6 µM in the test with ACHN renal; greater than 100 µM in the test on EKVX NSCLC; 60.9 µM with HS 578T breast; 13.9 µM in the test with HT29 colon; 24.7 µM in the test on M14 melanoma. For the same compound, the TGI in the test with MCF7 breast was found to be 13.2 µM; in the test with MOLT-4 leukemia, 26.1 µM; in the test with SK-MEL-2 melanoma, 94.8 µM; in the test with SNB-75 CNS it was 41.8 µM.
`CCCc1cc(=O)n2c(C(=O)Nc3ccc(F)cc3)c(C(=O)Nc3ccc(F)cc3)sc2n1`: the GI50 in the test on A549 NSCLC was 17.5 µM; in the test with ACHN renal, 17.3 µM; in the test with EKVX NSCLC, greater than 160 µM; in the test with HS 578T breast it was 2.58 µM; in the test on HT29 colon, 47.1 µM; with M14 melanoma it was 23.5 µM. Moreover, the GI50 in the test with MCF7 breast was 54.8 µM; in the test with MOLT-4 leukemia, greater than 160 µM; with SK-MEL-2 melanoma it was 24.1 µM; in the test on SNB-75 CNS, 3.48 µM. For the same compound, the TGI in the test on A549 NSCLC is 40 µM; in the test on ACHN renal, 57.7 µM; in the test on EKVX NSCLC, greater than 160 µM; with HS 578T breast, 11.1 µM; in the test on HT29 colon, greater than 160 µM; in the test on M14 melanoma, 81 µM. The TGI with MCF7 breast was greater than 160 µM; in the test on MOLT-4 leukemia, greater than 160 µM; in the test with SK-MEL-2 melanoma it was 54.4 µM; with SNB-75 CNS, 13.8 µM.
Consider `O=C(Nc1ccccc1I(=O)=O)C1CCCCC1`, for which the GI50 in the test with A549 NSCLC, with ACHN renal, with EKVX NSCLC, with HS 578T breast, in the test with HT29 colon and with MCF7 breast was greater than 100 µM throughout. Besides, the GI50 in the test with MOLT-4 leukemia is 98.5 µM; in the test on SK-MEL-2 melanoma, greater than 100 µM; in the test on SNB-75 CNS, greater than 100 µM. The TGI in the test with A549 NSCLC, with ACHN renal, in the test with EKVX NSCLC, with HS 578T breast, with HT29 colon and in the test on MCF7 breast was greater than 100 µM each time. The TGI in the test with MOLT-4 leukemia, with SK-MEL-2 melanoma and in the test on SNB-75 CNS was greater than 100 µM throughout.

(Values after PubChem BioAssay (NCI).)
